# Source: patent US20220096664A1, “STABILIZED FORMULATIONS CONTAINING IODINATED CONTRAST AGENTS AND CYCLODEXTRINS” (Verrow Pharmaceuticals, Inc., priority 2012, published 2022)
# Entries after “also recorded” stand apart in the source; their conditions may differ. Where two headings read alike, the source gives them in different places.
# Tests used:
# [1] = tested on: endothelial HMEC cells; conditions: incubation with sodium or potassium iodide; cited from earlier work
# [2] = tested on: bovine aortic endothelial cells; conditions: cited from earlier work
# [3] = Photostability: iodide formed after UV light irradiation; format: physicochemical; conditions: pH 8
# Experimental: Aqueous solutions comprising iodinated contrast agents were prepared and evaluated in a photolysis chamber as described in the ICH guidance document, Q1B Photostability Testing of New Drug Substances and Products, available from the US Food and Drug Administration, incorporated herein by reference. The solutions were placed in 1 cm×1 cm (3 mL) quartz cuvettes having 2 clear sides and 2 sides etched. Lids were placed on the cuvettes and sealed with a wrap of Parafilm® around the joint. The cuvettes were placed in a photolysis chamber, upright on a flat surface beneath and centered between two horizontal 24 inch fluorescent lamps, (GE, black light F20T12, 20 watt for ultraviolet, or Philips F20T12/CW, 20 watt for visible) placed 6 cm apart. The cuvettes were positioned such that their two clear sides were facing the two lamps.
# Cuvettes were spaced ˜2 cm from each other, and no closer than 15 cm from the ends of the lamps. This positioning allowed reproducible light exposure to all cuvettes.
# (§1) The lamps were switched on and the solutions irradiated for 18 to 24 hours for the ultraviolet (UV) lamps or 72 to 90 hours for the visible (VIS) light lamps. At the end of the selected irradiation time, the cuvettes were removed from the photolysis chamber and mixed by inversion 2-times. The caps were then removed and 40 microliter aliquots taken and diluted with 1 mL of an aqueous solution containing ˜0.9 mg/mL sodium thiosulfate. The thiosulfate solution converted any I2, IO3^−, and I3^− present in the solution tor such that total iodine species could be determined in one assay.
# (§2) The diluted solutions were assayed by high pressure liquid chromatography (HPLC) using a 4.6×250 mm, C-18, 5 micron particle size, reversed phase column with detection at 280 nm for the contrast agent and 230 nm for the thiosulfate and the iodide ion (r). A mobile phase of 30:70 methanol:aqueous buffer (50 mM KH2PO4+7 mL/L 40% tetrabutyl ammonium hydroxide) at 0.75 mL/min was used for elution. Injection volume was 20 microliters. External standards were prepared containing each contrast agent, potassium iodide, and sodium thiosulfate solution and analyzed along with the irradiated samples. The results were reported as weight percentage iodide formed (mg iodide/mg contrast agent times 100).
# The absorbance readings at 400 nm due to light exposure were plotted against time of exposure and the resulting correlation used to determine the UV and VIS light exposure. A change in absorbance reading of 0.45 was assumed equivalent to 200 watt hours/square meter for the UV light and a change of 0.51 was assumed equivalent to 1.2 million lux hours for the VIS light. The UV lamps provided 6.62 watts/square meter and the VIS lamps provided 7180 lux.
# Aqueous solutions were prepared containing 50 mM contrast agent by diluting commercially available solutions with water. Tromethamine HCl buffer (TRIS), was added to solutions as necessary to increase the TRIS content to that of the commercial product before dilution.
# SCD was added to the solutions at various mole ratios and the pH of the solutions adjusted to 7.4 with 0.1N hydrochloric acid or 0.1N sodium hydroxide. The solutions were irradiated with UV light for 18 hours (119 watt hours/m^2) then processed, analyzed and reported as in Example 2. The SCDs evaluated were sulfobutyl ether beta-cyclodextrin with an average degree of substitution of 7 (SBE-704CD), and two 2-hydroxypropyl beta-cyclodextrin derivatives having 6.3 (HP-6.3n/CD) and 4.3 (HP-4.3-βCD) average degrees of substitution.
# Aqueous solutions were prepared containing 50 mM contrast agent by diluting commercially available solutions with distilled water. Tromethamine HCl buffer (TRIS), was added to some solutions to increase the buffer content.
# The solutions were divided and SBE-7-CD added to one aliquot at a contrast agent:SCD mole ratio of 1:1. The pH of the solutions was adjusted to 5, 6, 7, 7.4 or 8 with 0.1N hydrochloric acid or sodium hydroxide. […]
# [4] = format: physicochemical
# Experimental: as §1, §2
# Aqueous solutions were prepared containing 50 mM iodinated contrast agent, 10 mM tromethamine HCl buffer (TRIS), with and without sulfobutylether beta-cyclodextrin with an average degree of substitution-7 (SBE7-β-CD), or 2-hydroxypropyl beta-cyclodextrin with an average degree of substitution of ˜6.3 (HP6.3-β-CD) or ˜4.3 (HP4.3-β-CD). The iohexol solution was prepared by dissolving solid iohexol powder while the other solutions were prepared by diluting commercial formulated products and adding sufficient TRIS buffer to reach 10 mM. The pH of the solutions was adjusted to 7.4 with 0.1N hydrochloric acid.
# Aliquots of the solutions were irradiated with visible light for 72 hours (0.52 million lux hours). Other aliquots were autoclaved for 20 minutes at 121° C., cooled to room temperature and then irradiated with ultraviolet light for 18 hours (119 watt hours/m2). The solutions were then processed, analyzed and reported as in Example 2, except that the chromatographic peaks of the contrast agents were evaluated at 300 nm for both samples and standards.
# Aqueous solutions were prepared containing 50 mM iohexol, 0, 2.5, 5, 7.5, or 10 mM tromethamine HCl (TRIS) buffer, with and without 2.5 mM sulfobutylether beta-cyclodextrin with an average degree of substitution-7 (SBE7-β-CD). The pH of the solutions was adjusted to 7.4 with 0.1N hydrochloric acid and the solutions were transferred to glass vials. The vials were stoppered, crimp-capped and autoclaved for 20 minutes at 121° C. The pH of the autoclaved solutions was measured after the solutions were at room temperature.
# Aliquots of the autoclaved solutions were irradiated with visible light for 72 hours (0.52 million lux hours) and other aliquots irradiated with ultraviolet light for 18 hours (119 watt hours/m2). The solutions were then processed, analyzed and reported as in Example 2, except that the chromatographic peak of the iohexol was evaluated at 300 nm for both samples and standards.
# Aqueous formulations were prepared containing iodinated contrast agents at concentrations used commercially in medical procedures. Sulfobutylether-cyclodextrin, sodium salt, average degree of substitution ˜7 (SBE7CD) was added at varying agent:CD mole ratios. The formulations were placed in glass vials, sealed with rubber stoppers and aluminum crimps, and autoclaved at 121° C. for 20 minutes. […]
# [5] = tested on: Beagle dog; test: Cardiovascular electrophysiology and hemodynamics after injection into the left main coronary artery; format: in vivo
# Experimental: Aqueous formulations were prepared containing 755 mg/mL iohexol without (formulation 1) or with (formulation 2) sulfobutylether β-cyclodextrin, sodium salt (average degree of substitution-7) at an iohexol:SCD mole ratio of 1:0.025. The addition of the SCD added 154 mM sodium to the solution as its counterion. The formulations also contained 0.1 mg/mL edetate calcium disodium hydrate, and 1.2 mg/mL tromethamine buffer, with the pH of each solution adjusted to 7.4 with 1N HCl. The solutions were sterilized by filtration through a 0.22 micron filter. […]
# The instrumentation provided measurement of right heart pressure, left ventricular pressure, aortic pressure, cardiac output and electrocardiography (ECG). The specific parameters measured were: systolic artery pressure (SAP), mean aortic pressure (MAP), diastolic aortic pressure (DAP), left ventricular systolic pressure (LVSP), left ventricular end diastolic pressure (LVEDP), left ventricle dP/dtmax (an indirect measure of contractile force), left ventricle dP/dtmin, cardiac output (CO), systemic vascular resistance (SVR), pulmonary vascular resistance (PVR), pulmonary artery pressure (PAP), monophasic action potential duration (MAPD30%, 50%, 90%), heart rate (HR), and from the ECG; PR interval, QRS duration, QT/QTc interval, JT/JTc interval (as needed) and arrhythmogenesis.
# [6] = contrast media solutions; cited from earlier work
compound,measurement,setting,value
I [iodide],toxicity in cultured endothelial HMEC cells,[1],causes toxicity
CN(C(=O)CO)c1c(I)c(C(=O)NCC(O)CO)c(I)c(C(=O)NCC(O)CO)c1I (stereo not drawn) [iomeprol],toxicity to bovine aortic endothelial cells,[2]; X-ray irradiated contrast agent,toxic to bovine aortic endothelial cells
same,toxicity to bovine aortic endothelial cells,[2]; non-irradiated contrast agent,not toxic
"CC(=O)N(CC(O)CO)c1c(I)c(C(=O)NCC(O)CO)c(I)c(C(=O)NCC(O)CO)c1I (stereo not drawn) [Iohexol, iohexol]",stabilization against photolysis by UV light,[3],stabilized iohexol against photolysis by UV light
same,iodide degradant after UV irradiation in the presence of the SCD,[4],Less of the iodide degradant was observed in the presence of the SCD
same,stabilization against photolysis by visible light irradiation,[4],the SCD also stabilized the solutions against photolysis by visible light irradiation
same,qualitative alterations in electrocardiographic morphology,[5]; concomitant with injection into the coronary artery,QRS complex widening along with ST segment depression; also recorded: Scattered premature ventricular contractions
same,ECG morphology returned to normal after the last injection,[5]; intracoronary,within five minutes
same,degradation in solution after exposure to ultraviolet light,[6],formation of iodine and iodide ions
